According to US9062050B2, “Inhibitor of JAK1 and JAK2” (Eli Lilly and Company, priority 2012, dated 2015):

Target: JAK2 (Homo sapiens, UniProt O60674)
Assay: JAK2 EPO-TF1/pSTAT5 cell-based assay (Cellomics ArrayScan HCS)
Parameters: endogenous in cells; host or cells: TF-1 (human erythroid leukemia) cells
Conditions: TF-1 cells, EPO at 1.6 U/mL, relative IC50, n=65; read-out: IC50, inhibits JAK2 (pSTAT5)
Text: The JAK2 EPO-TF1/pSTAT5 cell-based assay mimics the constitutive activation of JAK2-STAT5 in erythroid progenitor cells, which drives the overproduction of red blood cells, a marker of polycythemia vera (PV). Therefore, the EPO-TF1/pSTAT5 cell-based assay enables the evaluation of the JAK2 cellular activity of JAK compounds in vitro.
TF-1 (human erythroid leukemia) cells are maintained in RPMI 1640 (RPMI-1640 was developed by Moore et. al. at Roswell Park Memorial Institute. The formulation is based on the RPMI-1630 series of media utilizing a bicarbonate buffering system and alterations in the amounts of amino acids and vitamins.) with 10% fetal bovine serum (FBS), 0.075% sodium bicarbonate, 1 mM sodium pyruvate, 1× antibiotic/antimycotic (Invitrogen, Carlsbad, Calif.) and 0.45% glucose. The medium is supplemented with GM-CSF (granulocyte-macrophage colony-stimulating factor) at a final concentration of 2 ng/mL. Cells are kept at 37° C. with 5% CO2. […] TF-1 cells are counted and cells are collected to seed 2×10^7 cells per 96-well plate at a density of 2×10^5 cells per well. […]
To perform the assay, serum-starved cells are collected and washed once with unsupplemented RPMI 1640 medium. […] An aliquot of 200 μL of 1 to 10 dilution of Mouse anti-pSTAT5 (pY694) Alexa Fluor 647® in fluorescence activated cell sorting (FACS) buffer is added to the cells. […]

Sequence of JAK2 (O60674 whole entry): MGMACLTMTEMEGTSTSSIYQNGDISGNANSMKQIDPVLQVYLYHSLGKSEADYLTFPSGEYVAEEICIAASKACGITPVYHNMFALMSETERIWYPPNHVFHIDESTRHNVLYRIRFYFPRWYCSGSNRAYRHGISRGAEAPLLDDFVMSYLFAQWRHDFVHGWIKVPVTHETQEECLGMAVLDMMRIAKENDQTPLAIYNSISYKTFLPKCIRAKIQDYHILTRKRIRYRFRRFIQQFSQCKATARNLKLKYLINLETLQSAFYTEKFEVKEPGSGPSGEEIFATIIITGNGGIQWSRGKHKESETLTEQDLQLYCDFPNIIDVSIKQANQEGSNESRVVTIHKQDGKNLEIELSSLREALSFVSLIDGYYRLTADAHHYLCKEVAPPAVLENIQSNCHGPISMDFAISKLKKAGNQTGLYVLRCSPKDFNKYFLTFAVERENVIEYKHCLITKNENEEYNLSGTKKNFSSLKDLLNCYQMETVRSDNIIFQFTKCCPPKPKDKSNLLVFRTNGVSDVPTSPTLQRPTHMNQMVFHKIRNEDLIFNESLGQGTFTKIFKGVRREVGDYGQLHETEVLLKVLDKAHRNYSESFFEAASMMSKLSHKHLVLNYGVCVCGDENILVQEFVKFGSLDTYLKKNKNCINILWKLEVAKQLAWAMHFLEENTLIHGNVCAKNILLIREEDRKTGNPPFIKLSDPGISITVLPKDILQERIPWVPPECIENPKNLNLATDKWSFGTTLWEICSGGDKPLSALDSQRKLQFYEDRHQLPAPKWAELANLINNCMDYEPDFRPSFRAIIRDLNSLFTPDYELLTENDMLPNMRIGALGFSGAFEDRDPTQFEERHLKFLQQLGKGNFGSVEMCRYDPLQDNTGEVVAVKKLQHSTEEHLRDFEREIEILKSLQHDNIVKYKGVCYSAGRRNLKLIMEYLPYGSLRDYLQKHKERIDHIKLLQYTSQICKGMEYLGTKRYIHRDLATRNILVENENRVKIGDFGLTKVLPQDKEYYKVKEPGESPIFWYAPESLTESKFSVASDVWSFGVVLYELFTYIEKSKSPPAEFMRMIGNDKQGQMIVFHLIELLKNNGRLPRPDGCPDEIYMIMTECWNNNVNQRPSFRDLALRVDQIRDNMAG

Cc1cc(Nc2ccc3ncn([C@@H]4CCc5ccc(F)cc54)c3n2)[nH]n1.Cl.Cl [Example 1, 3-[(1R)-6-fluoro-2,3-dihydro-1H-inden-1-yl]-N-(3-methyl-1H-pyrazol-5-yl)-3H-imidazo[4,5-b]pyridin-5-amine dihydrochloride]
IC50: 35 nM
